Data on five compounds can be found in patent US20110269790A1, “NOVEL THIENOPYRIDINES AS PHARMACOLOGICALLY ACTIVE AGENTS” (priority 2009, published 2011).

The subject of one experiment is Wistar rats. In words: Carrageenan induced paw edema model. Type of experiment: in vivo, rat. The settings on record: for % Inhibition / Percentage Swelling (50 mg/kg) / Percentage Swelling (100 mg/kg) / Percentage Swelling (200 mg/kg): dose response study, n=6; for inhibition in vivo at 100 mg/kg / change in vivo at 100 mg/kg: Rattus norvegicus; for inhibition in vivo at 100 mg/kg: read-out: % Inhibition (paw volume); for change in vivo at 100 mg/kg: read-out: % Increase in Paw Volume.

The test system of experiment [1] is A431 (Skin cancer) cell lines. In words: MTT assay, A431. Type of experiment: cell-based. The settings on record: MTT, 48 hrs; for IC50: Homo sapiens, A-431, read-out: A431 cell lines IC50. As for the experimental part: (§1) A431 (Skin cancer), Colo-205 (Colon cancer), A549 (Lung cancer) cell lines were obtained from National Center for Cell science (NCCS), Pune, India. DMEM (Dulbeccos Modified Eagles Medium), MTT [3-(4,5-dimethylthiazol-2-yl)-2,5-diphenyl tetrazolium bromide], Trypsin, EDTA were purchased from Sigma Chemicals Co (St. Louis, Mo.), Fetal bovine serum were purchased from Arrow labs, 96 well flat bottom tissue culture plates were purchased from Tarson.
(§2) A431, Colo-205, A549 cell lines were grown as adherent cells in DMEM media supplemented with 10% fetal bovine serum, 100 μg/ml penicillin, 200 μg/ml streptomycin, 2 mM L-glutamine, and culture was maintained in a humidified atmosphere with 5% CO2. Stock solution of 10 mg/ml was prepared for test molecules in DMSO. From the stock, various dilutions were made with sterile water to get required concentration. A431, Colo-205, A549 cell lines were seeded at a density of 1×10^4 cells (cell number was determined by Trypan blue exclusion dye method) per each well in 100 μl of DMEM supplemented with 10% FBS. 12 hrs after seeding, above media was replaced with fresh DMEM supplemented with 10% FBS. Then, 10 μl sample from above stock solutions were added to each well in triplicates which gives final concentration of 100, 50, 25, 10 μg/well. The above cells were incubated for 48 hrs at 37° C. with 5% CO2. After 48 hrs incubation the above media was replaced with 100 μl of fresh DMEM with out FBS and to this 10 μl of MTT (5 mg dissolved in 1 ml of PBS) was added and incubated for 3 hrs at 37° C. with 5% CO2. After 3 hrs of incubation, the above media was removed with multi channel pipette, then 200 μl of DMSO was added to each well and incubated at 37° C. for 15 min. Finally, the plate was read at 570 nm using spectrophotometer (Spectra Max, Molecular devices).

The test system of the next experiment is Colo-205 (Colon cancer). In words: MTT assay, Colo-205. The class given is cell-based. The settings on record: MTT, 48 hrs; for IC50: Homo sapiens, COLO 205, read-out: Colo-205 IC50. The method, then: as §1, §2
For a further experiment, the system named is A549 (Lung cancer). In words: MTT assay, A549. Type of experiment: cell-based. The settings on record: MTT, 48 hrs; for IC50: Homo sapiens, A549, read-out: A549 IC50. The method, then:
as §1, §2

The target in experiment [2] is T1, porcine pancreatic α-amylase (Sus scrofa, UniProt P00690).
T1 construct: α-amylase [EC 3.2.1.1) Type VI B: from porcine pancreas]; purchased Sigma Chemical Co., St Louis, Mo., USA; host or cells: porcine pancreas (natural source)
T1 sequence (P00690 16-511): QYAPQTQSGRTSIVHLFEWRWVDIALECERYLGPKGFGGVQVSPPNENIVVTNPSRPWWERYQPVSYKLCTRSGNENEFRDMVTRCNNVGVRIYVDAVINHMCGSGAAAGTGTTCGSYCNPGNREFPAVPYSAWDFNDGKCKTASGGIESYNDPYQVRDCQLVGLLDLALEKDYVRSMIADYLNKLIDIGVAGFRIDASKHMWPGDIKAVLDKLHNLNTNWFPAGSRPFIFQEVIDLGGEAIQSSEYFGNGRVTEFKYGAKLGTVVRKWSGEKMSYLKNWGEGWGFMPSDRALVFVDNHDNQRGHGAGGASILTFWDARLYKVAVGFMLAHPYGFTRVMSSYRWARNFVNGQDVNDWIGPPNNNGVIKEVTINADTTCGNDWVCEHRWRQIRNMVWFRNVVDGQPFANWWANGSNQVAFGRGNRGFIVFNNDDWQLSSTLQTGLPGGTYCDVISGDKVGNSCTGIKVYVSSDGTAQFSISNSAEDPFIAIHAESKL
In words: α-Amylase inhibition assay. Type of experiment: biochemical. As to conditions: for Maltose released: a/b marks the respective control (Control-1 2.147, Control-2 3.429); for inhibition at 10000 µg/mL (stock): 0.05 h. The text has this:
Chemicals: α-Glucosidase [(EC 3.2.1.20) Type I: from bakers yeast], rat intestinal acetone powder (as a source of crude intestinal α-glucosidase), α-amylase [EC 3.2.1.1) Type VI B: from porcine pancreas], p-nitrophenyl α-D-glucopyranoside, 3,5-dinitro salicylic acid, soluble potato starch and 1-deoxyrojirimycine, were purchased from Sigma Chemical Co., St Louis, Mo., USA. Other chemicals of analytical grade were procured from indigenous manufacturers.
a-Amylase Inhibition Assay: The assay method was adopted from Ali et al. (2006) and modified accordingly to suite microplate reading. In brief, 40 μL of test samples (10 mg/mL DMSO) were reconstituted in 160 μL of 20 mM phosphate buffer (pH 6.9) containing 6.7 mM sodium chloride in 2 mL Eppendorf tubes and incubated with 200 μL of porcine pancreatic α-amylase) (4 U/mL prepared in ice cold distilled water) for 5 min. The reaction was started by the addition of 400-μL soluble potato starch solution (0.5% w/v in 20 mM phosphate buffer, pH 6.9). Exactly 3 min after incubation, 400 μL DNS color reagent (1.0 g of 3,5-dinitrosalicylic acid, 30 g of sodium potassium tartrate and 20 mL of 2 N NaOH to a final volume of 100 mL in distilled water) was added. Closed tubes were placed in a water bath (85-90° C.) for 10 min to develop color and cooled thereafter. 50 μL of reaction mixtures was diluted with 175 μL of distilled water in a 96-well microplate. α-Amylase activity was determined by measuring the absorbance of the mixture at 540 nm spectrophotometrically as above. Individual blanks were prepared to correct for the background absorbance due to test samples. In this case DNS solution was added in tubes before addition of substrate. The percentage inhibition of enzyme activity was calculated as above. All the tests were run in duplicate in this assay.

[3] abbreviates: test compounds 100 mg/kg oral, Indomethacin 10 mg/kg oral, 3 hrs after Carrageenan.
[4] abbreviates: 10 mg per ml, calculated from maltose released vs respective control.

≈ marks a conversion by molar mass, not a printed value. Where “and” joins values, the source holds several entries; their conditions need not be identical. Equal values may be shown once.

As for `Nc1c2c(nc3sc4c(c13)CCC4)CCCC2` [BN-14, 2,3,6,7,8,9-Hexahydro-1H-cyclopenta[4,5]thieno[2,3-b]quinolin-10-amine], the “% Inhibition” value with Wistar rats (50 mg/kg oral) is 19.80 ± 2.24%; in the experiment on Wistar rats (100 mg/kg oral), 33.47 ± 6.70%; in the experiment with Wistar rats (200 mg/kg oral) it was 56.45% and 56.45 ± 3.12%. Also, in the experiment on Wistar rats (50 mg/kg oral), the “Percentage Swelling (50 mg/kg)” value is on record as 72.34 ± 1.73 %. Besides, the “Percentage Swelling (100 mg/kg)” value in the experiment on Wistar rats (100 mg/kg oral) was found to be 71.30 ± 3.72 %. In addition, the “Percentage Swelling (200 mg/kg)” value with Wistar rats (200 mg/kg oral) was determined as 41.78 ± 3.31 %. In the experiment with Wistar rats (setting [3]), the inhibition in vivo at 100 mg/kg was 33.5 ± 8.35%. Also, the IC50 was 99.3 µg/mL (≈ 406 µM) in experiment [1], 223 µg/mL (≈ 913 µM) in the experiment on Colo-205 (Colon cancer) and 79.4 µg/mL (≈ 325 µM) with A549 (Lung cancer). Further, the Maltose released in experiment [2] (10 mg per ml) was found to be 2.210 mg/mL. The inhibition at 10000 µg/mL (stock) in experiment [2] (setting [4]) is -3.06%.

Regarding `CC1CCc2c(nc3sc4c(c3c2N)CCC4)C1` (stereo not drawn) [BN-15, 7-Methyl-2,3,6,7,8,9-hexahydro-1H-cyclopenta[4,5]thieno[2,3-b]quinolin-10-amine], in the experiment on Wistar rats (setting [3]), the change in vivo at 100 mg/kg is 86.5 ± 17.1% and the inhibition in vivo at 100 mg/kg turned out to be 23.5 ± 8.98%. Besides, in experiment [1], the half-inhibitory concentration (IC50) turned out to be 40.7 µg/mL (≈ 158 µM). Moreover, the “Colo-205 IC50” value in the experiment on Colo-205 (Colon cancer) is “No activity”. Moreover, in the experiment on A549 (Lung cancer), the IC50 was determined as 72.4 µg/mL (≈ 280 µM). Further, in experiment [2] (10 mg per ml), the “Alpha amylase inhibitory activity (in words)” value is reported as “strong inhibitory activity” and the Maltose released came to 1.179 mg/mL. Further, the inhibition at 10000 µg/mL (stock) in experiment [2] (setting [4]) was 46.7%.

Regarding `Nc1c2c(nc3sc4c(c13)CCC4)CCCCC2` [BN-16, 1,2,3,6,7,8,9,10-Octahydrocyclohepta[b]cyclopenta[4,5]thieno[3,2-e]pyridine-11-amine], in the experiment on Wistar rats (50 mg/kg oral), the “% Inhibition” value is 20.47 ± 1.61% and the “Percentage Swelling (50 mg/kg)” value is on record as 73.18 ± 2.41 %. Besides, in the experiment with Wistar rats (100 mg/kg oral), the “% Inhibition” value is recorded as 44.90 ± 5.86% and the “Percentage Swelling (100 mg/kg)” value came to 61.09 ± 5.86 %. Moreover, in the experiment on Wistar rats (200 mg/kg oral), the “% Inhibition” value is reported as 56.0 ± 2.87% and the “Percentage Swelling (200 mg/kg)” value was determined as 45.60 ± 5.30 %. For the same compound, in the experiment on Wistar rats (200 mg/kg oral, listed as B-16), the “% Inhibition” value was found to be 57.53%. Further, in the experiment with Wistar rats (setting [3]), the change in vivo at 100 mg/kg worked out at 61.1 ± 19.2% and the inhibition in vivo at 100 mg/kg was 44.9 ± 5.86%. In addition, in experiment [1], the IC50 came out at 63 µg/mL (≈ 244 µM). Also, in the experiment with Colo-205 (Colon cancer), the IC50 stood at 123 µg/mL (≈ 476 µM). Also, the IC50 in the experiment on A549 (Lung cancer) stood at 39.8 µg/mL (≈ 154 µM). In experiment [2] (10 mg per ml), the “Alpha amylase inhibitory activity (in words)” value was “mild inhibition” and the Maltose released turned out to be 1.492 mg/mL. For the same compound, in experiment [2] (setting [4]), the inhibition at 10000 µg/mL (stock) was 31.5%.

Consider `Nc1c2c(nc3sc4c(c13)CCC4)CCCCCC2` [BN-17, 2,3,6,7,8,9,10,11-Octahydro-1H-cycloocta [b]cyclopenta[4,5]thieno[3,2-e]pyridin-12-amine], for which, in the experiment on Wistar rats (setting [3]), the “% Increase in Paw Volume” value turned out to be 76.85 ± 6.45% and the “% Inhibition (paw volume)” value is 6.87 ± 4.76%. The “A431 cell lines IC50” value in experiment [1] turned out to be 32.35 µg/mL. Further, in the experiment with Colo-205 (Colon cancer), the “Colo-205 IC50” value worked out at 61.65 µg/mL. Also, the “A549 IC50” value with A549 (Lung cancer) worked out at 40.7 µg/mL. Further, in experiment [2] (10 mg per ml), the “Alpha amylase inhibitory activity (in words)” value is “strong inhibitory activity” and the Maltose released was 1.028 mg/mL. For the same compound, the “% Inhibition” value in experiment [2] (setting [4]) is given as 53.92%.

`Nc1c2c(nc3sc4c(c13)CCCCC4)CCC2` [BN-18, 1,2,3,6,7,8,9,10-Octahydrocyclohepta[4,5] thieno[2,3-b]cyclopenta [e]pyridin-11-amine]: in the experiment on Wistar rats (setting [3]), the change in vivo at 100 mg/kg turned out to be 62.8 ± 2%. Besides, in the experiment on Wistar rats (setting [3]), the inhibition in vivo at 100 mg/kg was determined as 17.4 ± 0.27%. Further, the results for the IC50 (in experiment [1]; with Colo-205 (Colon cancer); in the experiment on A549 (Lung cancer)) were 53.7 µg/mL (≈ 208 µM), 47.8 µg/mL (≈ 185 µM) and 39.8 µg/mL (≈ 154 µM), respectively. Besides, in experiment [2] (10 mg per ml), the Maltose released was 3.972 mg/mL. Moreover, the inhibition at 10000 µg/mL (stock) in experiment [2] (setting [4]) was -16.2%. In experiment [2] (end of the reaction, vs control maltose release), the Maltose release result is “more than control”.
